This is an account of results in patent publication US20050054770A1, “Helicomimetics and stabilized lxxll peptidomimetics” (priority 2001, published 2005).

Each structure is given as a SMILES string. Positions of bridges follow the written chain, without caps; N, C: chain ends. Non-standard residues stand in square brackets, D forms with d. Residues, ends and D or L forms follow the SMILES beside them.

One assay addresses ER beta (Homo sapiens, UniProt Q92731). Description: competition binding assay against a model linear peptide sequence (estrogen receptor-coactivator interaction), ER beta. Particulars: competition binding assay (Lilly Research Labs); read-out: Ki ER β. As for the experimental part:
(§1) The synthetic helicormimetic peptides designed as antagonists of the estrogen receptor-coactivator interactions were tested in a competition binding assay (Lilly Research Labs) against a model linear peptide sequence. Activities are reported in the Table below in Ki values, with two of the best analogs labeled as PERM-1 and PERM-2, or Peptidomimetic Estrogen Receptor Modulators.

The target in a further assay is T1, ER alpha (Homo sapiens, UniProt P03372).
T1 sequence (P03372 1-595): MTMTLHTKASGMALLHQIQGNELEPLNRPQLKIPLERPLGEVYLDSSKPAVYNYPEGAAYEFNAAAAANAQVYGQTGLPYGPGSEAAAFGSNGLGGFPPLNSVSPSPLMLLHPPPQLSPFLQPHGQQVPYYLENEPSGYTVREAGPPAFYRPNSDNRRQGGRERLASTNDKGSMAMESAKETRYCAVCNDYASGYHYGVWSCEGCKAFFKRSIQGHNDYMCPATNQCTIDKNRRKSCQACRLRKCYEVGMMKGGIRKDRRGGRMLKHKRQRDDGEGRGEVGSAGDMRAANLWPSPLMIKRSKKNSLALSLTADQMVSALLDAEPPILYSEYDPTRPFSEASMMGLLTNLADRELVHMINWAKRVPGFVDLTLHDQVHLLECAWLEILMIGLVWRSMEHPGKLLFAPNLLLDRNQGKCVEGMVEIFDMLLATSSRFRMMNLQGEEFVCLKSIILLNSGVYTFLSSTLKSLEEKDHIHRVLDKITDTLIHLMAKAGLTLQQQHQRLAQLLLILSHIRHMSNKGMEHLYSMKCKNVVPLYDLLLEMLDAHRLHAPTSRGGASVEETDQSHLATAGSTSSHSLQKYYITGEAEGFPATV
As to the kind of experiment: competition binding assay against a model linear peptide sequence (estrogen receptor-coactivator interaction), ER alpha. Particulars: competition binding assay (Lilly Research Labs); read-out: Ki ER α. As for the experimental part:
as §1

ER beta, sequence (Q92731 whole entry): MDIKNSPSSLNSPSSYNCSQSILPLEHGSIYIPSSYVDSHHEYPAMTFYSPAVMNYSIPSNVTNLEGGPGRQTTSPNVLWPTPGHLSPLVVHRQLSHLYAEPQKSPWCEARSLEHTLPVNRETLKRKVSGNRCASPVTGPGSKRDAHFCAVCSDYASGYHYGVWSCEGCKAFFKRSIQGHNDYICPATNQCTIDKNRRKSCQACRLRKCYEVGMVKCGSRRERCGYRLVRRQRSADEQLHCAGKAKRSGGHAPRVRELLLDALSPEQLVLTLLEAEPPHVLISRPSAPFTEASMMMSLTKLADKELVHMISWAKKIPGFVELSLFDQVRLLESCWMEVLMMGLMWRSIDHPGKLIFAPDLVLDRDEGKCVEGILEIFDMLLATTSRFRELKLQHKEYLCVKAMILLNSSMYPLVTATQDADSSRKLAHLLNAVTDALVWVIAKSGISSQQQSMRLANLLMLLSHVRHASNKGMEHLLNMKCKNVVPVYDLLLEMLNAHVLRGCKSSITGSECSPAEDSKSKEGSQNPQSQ

Turning to `CC[C@H](C)[C@@H]1NC(=O)[C@H](NC(=O)[C@H](N)CCCCN)CSSC[C@@H](C(=O)N[C@@H](CCCNC(=N)N)C(=O)N[C@@H](CC(C)C)C(=O)N[C@@H](CC(C)C)C(=O)N[C@@H](CCC(N)=O)C(N)=O)NC(=O)[C@H](CC(C)C)NC1=O` [AKG-I-28, H-D-Lys-cyclo (D-Cys-Ile-Leu-Cys)-Arg-Leu-Leu-Gln-NH2] (H-[dK][dC]ILCRLLQ-NH2; disulfide 2-5), the inhibition constant (Ki) at ER beta is 1900 nM; at ER alpha, 220 nM. The corresponding values for `CC[C@H](C)[C@@H]1NC(=O)[C@@H](NC(=O)[C@@H](N)CCCCN)CSC[C@@H](C(=O)N[C@@H](CCCNC(=N)N)C(=O)N[C@@H](CC(C)C)C(=O)N[C@@H](CC(C)C)C(=O)N[C@@H](CCC(N)=O)C(N)=O)NC(=O)[C@H](CC(C)C)NC1=O` [AKG-I-39, H-Lys-cyclo (Ala-Ile-Leu-Ala)- Arg-Leu-Leu-Gln-NH2, Lanthionine] are 15400 nM and 1180 nM. For the compound `CC[C@H](C)[C@@H]1NC(=O)[C@H](NC(=O)[C@H](CC(C)C)NC(=O)[C@H](CC(C)C)NC(=O)[C@@H](N)CCCCN)CSSC[C@@H](C(=O)N[C@@H](CCCNC(=N)N)C(=O)N[C@@H](CC(C)C)C(=O)N[C@@H](CC(C)C)C(=O)N[C@@H](CCC(N)=O)C(N)=O)NC(=O)[C@H](CC(C)C)NC1=O` [AKG-I-46, H-Lys-Leu-Leu-cyclo(D-Cys-Ile-Leu-Cys)-Arg-Leu-Leu-Gln-NH2] (H-KLL[dC]ILCRLLQ-NH2; disulfide 4-7), the Ki at ER beta was 2000 nM; at ER alpha it was 398 nM. The corresponding values for `CC[C@H](C)[C@@H]1NC(=O)[C@H](NC(=O)[C@@H](N)CCCNC(=N)N)CSSC[C@@H](C(=O)N[C@@H](CCCNC(=N)N)C(=O)N[C@@H](CC(C)C)C(=O)N[C@@H](CC(C)C)C(=O)N[C@@H](CCC(N)=O)C(N)=O)NC(=O)[C@H](CC(C)C)NC1=O` [AKG-I-50, H-Arg-cyclo(D-Cys-Ile-Leu-Cys)-Arg-Leu-Leu-Gln-NH2] (H-R[dC]ILCRLLQ-NH2; disulfide 2-5) are 77 nM and 11 nM. The corresponding values for `CC[C@H](C)[C@@H]1NC(=O)[C@H](CC(C)C)NC(=O)[C@@H](NC(=O)[C@@H](N)CCCCN)CSSC[C@H](C(=O)N[C@@H](CCCNC(=N)N)C(=O)N[C@@H](CC(C)C)C(=O)N[C@@H](CC(C)C)C(=O)N[C@@H](CCC(N)=O)C(N)=O)NC1=O` [AKG-I-59, H-Lys-cyclo(Cys-Leu-Ile-D-Cys)-Arg-Leu-Leu-Gln-NH2] (H-KCLI[dC]RLLQ-NH2; disulfide 2-5) are 17000 nM and 2100 nM. In the case of `CC[C@H](C)[C@@H]1NC(=O)[C@@H](NC(=O)[C@@H](N)CCCCN)CSSC[C@H](C(=O)N[C@@H](CCCNC(=N)N)C(=O)N[C@@H](CC(C)C)C(=O)N[C@@H](CC(C)C)C(=O)N[C@@H](CCC(N)=O)C(N)=O)NC(=O)[C@H](CC(C)C)NC1=O` [AKG-I-60, H-Lys-cyclo(Cys-Ile-Leu-D-Cys)-Arg-Leu-Leu-Gln-NH2] (H-KCIL[dC]RLLQ-NH2; disulfide 2-5), the results for the Ki at ER beta and at ER alpha were 7200 nM and 2400 nM, respectively. The corresponding values for `CC[C@H](C)[C@@H]1NC(=O)[C@H](NC(=O)[C@@H](N)CCCCN)CSSC[C@H](C(=O)N[C@@H](CCCNC(=N)N)C(=O)N[C@@H](CC(C)C)C(=O)N[C@@H](CC(C)C)C(=O)N[C@@H](CCC(N)=O)C(N)=O)NC(=O)[C@H](CC(C)C)NC1=O` [AKG-I-61, H-Lys-cyclo(D-Cys-Ile-Leu-D-Cys)-Arg-Leu-Leu-Gln-NH2] (H-K[dC]IL[dC]RLLQ-NH2; disulfide 2-5) are 3900 nM and 928 nM. On to `CC(C)C[C@H](NC(=O)[C@H](CC(C)C)NC(=O)[C@H](CCC(N)=O)NC(=O)[C@H](CCC(=O)O)NC(=O)[C@H](CC(C)C)NC(=O)CC1O[C@H](CO)[C@@H](O)[C@H](O)[C@@H]1O)C(=O)O` (stereo partly drawn) [AML-I-31, Mannosylacetvl-Leu-Glu-Gln-Leu-Leu-OH], for which, at ER beta, the Ki worked out at 339000 nM.
